The source of these data is patent publication US10278971B2, “Fluorocyclopentenylcytosine methods of use” (Rexahn Pharmaceuticals, Inc., priority 2015, dated 2019).

Holding throughout (type): cell-based, human
The subject of one test is DNMT1. In words: DNMT enzyme activity in isolated nuclei (DNA methyltransferase assay kit). Conditions: A2780 nuclear extracts, 5 μM, 24 hr. The protocol:
(§1) DNMT1 protein expression was measured by Western Blotting after exposure to RX-3117 for 24 or 48 hr. DNMT1 RNA expression was measured by real-time PCR after 24 and 48 hr exposure to RX-3117. DNMT enzyme activity was measured in isolated nuclei after exposure 1 μM RX-3117 or 5 μM aza-CdR using a DNA methyltransferase assay kit provided by EpiGentek using the ability of a CpG dinding domain to bind to methylated DNA. In A549 cells the effect of 5 μM RX-3117 on overall methylation was measured with a specific antibody against 5-methyl-cytosine. Bands on Western blots were visualized using appropriate InfraRedDye using an Odyssey InfraRed imager.

Another test concerns PCFT. In words: PCFT mediated transport of radiolabeled MTX. Conditions: CEM cells, 24 hr; RX-3117 29.6 μM; DAC positive control. From the text: In this study, the following cell lines were used: (1) CCRF-CEM cells and its MTX resistant variant CEM-MTX, characterized by a deficiency of the reduced folate carrier (RFC) (Jansen G., et al., JBC 273 (1998) 30189-30198). The PCFT gene in CEM cells is highly methylated. (Gonen N., et al., BBRC 376 (2008) 787-92.); (2) CEM cells cultured in RPMI medium with 10% fetal bovine serum (FBS); and (3) A549 and SW1573 non-small cell lung cancer (NSCLC) and A2780 ovarian cancer cell lines cultured in DMEM medium with 10% FBS.
MTX transport was measured using radiolabeled MTX in CEM wild type and CEM-MTX cell lines. CEM cells have a high RFC activity. CEM-MTX are completely deficient in RFC-mediated transport. CEM cells have a highly methylated PCFT transporter and a very low PCFT mediated transport (Gonen N., et al., BBRC 376 (2008) 787-92). MTX transport at pH 7.4 is predominantly RFC mediated and less than 2% by PCFT. Folic acid was used to inhibit PCFT mediated transport. […] CEM and CEM-MTX cells were exposed to 29.6 μM RX-3117 and to 0, 19 μM aza-CdR as a positive control. MTX transport was measured after 24 hr to the drugs in a 3 minutes uptake assay using 2 μM [3′,5,′7-3H]-MTX.

Test [1] concerns overall methylation of DNA. The test can be described thus: Overall methylation of DNA with antibody against 5-methyl-cytosine. The conditions noted are these: A549, 5 μM, 48 hr exposure. The protocol:
as §1

Regarding `Nc1ncn([C@H]2C[C@H](O)[C@@H](CO)O2)c(=O)n1` [DAC, 5-aza-2′-deoxycytidine, reference compound], the “inhibition of DNMT1 activity” value with DNMT1 is 31%. Besides, the “increase of PCFT mediated transport of MTX” value in the test on PCFT turned out to be 4 fold. The “decrease of overall methylation of DNA” value in test [1] was determined as 9%.
